In US20110028472A1, “THIENOPYRIMIDINES” (MERCK PATENT CESELLSCHAFT MIT BESCHRANKTER HAFTUNG, priority 2008, published 2011):

Molecular target: T1, GST-ALK5 (Homo sapiens, UniProt P36897)
T1 sequence (P36897 34-503): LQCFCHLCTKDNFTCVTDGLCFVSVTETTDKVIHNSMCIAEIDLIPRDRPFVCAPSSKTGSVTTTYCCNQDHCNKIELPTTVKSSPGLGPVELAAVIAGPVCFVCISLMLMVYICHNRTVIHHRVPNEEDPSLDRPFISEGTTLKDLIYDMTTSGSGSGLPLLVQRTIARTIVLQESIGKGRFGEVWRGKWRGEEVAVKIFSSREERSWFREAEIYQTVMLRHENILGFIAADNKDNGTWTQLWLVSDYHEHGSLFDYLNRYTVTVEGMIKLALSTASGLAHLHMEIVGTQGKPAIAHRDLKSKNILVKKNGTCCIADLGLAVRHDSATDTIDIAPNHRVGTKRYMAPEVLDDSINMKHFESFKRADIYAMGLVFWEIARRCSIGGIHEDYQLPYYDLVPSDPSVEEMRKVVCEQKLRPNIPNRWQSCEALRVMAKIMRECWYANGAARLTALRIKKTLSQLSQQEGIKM
Assay: In-vitro (enzyme) kinase assay, 384-well flashplate, inhibition of TGF-beta receptor I kinase
Assay type: biochemical
Conditions: 31.2 nM GST-ALK5, 439 nM GST-SMAD2, 3 mM ATP (33P-ATP), 30° C., 45 min
Procedure: In-Vitro (Enzyme) Assay for the Determination of the Efficacy of Inhibitors of the Inhibition of TGF-Beta-Promoted Effects Vermittelten Wirkungen
The kinase assay is carried out as 384-well flashplate assay. 31.2 nM of GST-ALK5, 439 nM of GST-SMAD2 and 3 mM of ATP (with 0.3 μCi of ^33P-ATP/well) are incubated in a total volume of 35 μl (20 mM of HEPES, 10 mM of MgCl, 5 mM of MnCl, 1 mM of DTT, 0.1% of BSA, pH 7.4) without or with test substance (5-10 concentrations) at 30° C. for 45 min. The reaction is stopped using 25 μl of 200 mM EDTA solution, filtered with suction at room temperature after 30 min, and the wells are washed with 3 times 100 μl of 0.9% NaCl solution. Radioactivity is measured in the TopCount. The IC50 values are calculated using RS1.

SMILES | IC50 [µM]
Cc1ccc(-c2nc(C3CC3)nc3sc(C(N)=O)c(N)c23)o1 [Compound A1, 5-amino-2-cyclopropyl-4-(5-methylfuran-2-yl)-thieno[2,3-d]pyrimidine-6-carboxamide] | 0.048
CSc1nc(-c2ccco2)c2c(N)c(C(N)=O)sc2n1 [Compound A8, 5-amino-4-furan-2-yl-2-methylsulfanylthieno[2,3-d]pyrimidine-6-carboxamide] | 0.097
CSc1nc(-c2ccc(C)o2)c2c(N)c(C(N)=O)sc2n1 [Compound A10, 5-Amino-4-(5-methylfuran-2-yl)-2-methyl-sulfanylthieno[2,3-d]pyrimidine-6-carboxamide] | 0.046
CC(C)(C)c1nc(-c2ccco2)c2c(N)c(C(N)=O)sc2n1 [Compound A25, 5-amino-2-tert-butyl-4-furan-2-ylthieno[2,3-d]pyrimidine-6-carboxamide] | 0.087
Cc1ccc(-c2nc(C(C)(C)C)nc3sc(C(N)=O)c(N)c23)o1 [Compound A26, 5-amino-2-tert-butyl-4-(5-methylfuran-2-yl)thieno[2,3-d]pyrimidine-6-carboxamide] | 0.077
CNc1nc(-c2ccc(C)o2)c2c(N)c(C(N)=O)sc2n1 [Compound A34, 5-amino-2-methylamino-4-(5-methylfuran-2-yl)thieno[2,3-d]pyrimidine-6-carboxamide] | 0.036
C=CCNc1nc(-c2ccc(C)o2)c2c(N)c(C(N)=O)sc2n1 [Compound A42, 2-allylamino-5-amino-4-(5-methylfuran-2-yl)-thieno[2,3-d]pyrimidine-6-carboxamide] | 0.067
C=CCNc1nc(-c2cccc(C)n2)c2c(N)c(C(N)=O)sc2n1 [Compound A50, 2-allylamino-5-amino-4-(6-methylpyridin-2-yl)thieno[2,3-d]pyrimidine-6-carboxamide] | 0.022
C#CCNc1nc(-c2cccc(C)n2)c2c(N)c(C(N)=O)sc2n1 [Compound A52, 5-amino-4-(6-methylpyridin-2-yl)-2-prop-2-ynylaminothieno[2,3-d]pyrimidine-6-carboxamide] | 0.054
Cc1cccc(-c2nc(NCCC#N)nc3sc(C(N)=O)c(N)c23)n1 [Compound A56, 5-amino-2-(2-cyanoethylamino)-4-(6-methylpyridin-2-yl)thieno[2,3-d]-pyrimidine-6-carboxamide] | 0.079
